# Assay results taken from patent publication EP4596537A1, “NOVEL FLUORENE DERIVATIVE COMPOUND AND USE THEREOF” (JD Bioscience Inc., priority 2022, dated 2024).
# System: PDHE1α S293
# Assay: In vitro PDH S293 phosphorylation inhibition (Western blot) in HEK293 cells
# Assay type: cell-based, human
# Details: 5 hours, at 1 µM
# Procedure: HEK293 cells, which are human embryonic kidney cells, were seeded at a density of 2 × 10^6 in a 60 mm dish, and cultured for 24 hours. After replacing the medium with a medium comprising 0.5% FBS, the compounds prepared according to Examples 1 to 54 were treated at various concentrations. 5 hours later, the cells were scraped off and collected into a 15 mL conical tube and centrifuged at 1500 rpm for 10 minutes. The supernatant was discarded, the resultant was washed with 1× PBS, and transferred to a 1.5 mL e-tube, followed by centrifugation at 10,000 rpm for 5 minutes. The supernatant was discarded again, a lysis buffer was added, and the cells were lysed on ice for 30 minutes. The cells were vortexed every 10 minutes to completely lyse, and centrifuged again at 10,000 rpm for 15 minutes at 4°C, and the supernatant was collected. The protein in the supernatant was quantified using BCA technique, and the sample buffer was added to 20 µg of protein and allowed to react at 70°C for 5 minutes. The expression of PDHE1α S232, S293, S300, and total PDHE1α proteins was detected by Western blot, and the resulting PDH S293 phosphorylation inhibition is shown in Table 6. […]
row,Compound,PDH S293 phosphorylation inhibition
1,N'-(3-chloro-5-(trifluoromethyl)pyridin-2-yl)-2-(4-(2-fluoro-9-hydroxy-9-(trifluoromethyl)-9H-fluoren-4-yl)-1H-pyrazol-1-yl)propanehydrazide [Example 32],++ (50% or more of PHDE1α S293 expression inhibition rate at 1 µM)
2,N'-(3-chloro-5-(trifluoromethyl)pyridin-2-yl)-2-(4-(9-hydroxy-2-methoxy-9-(trifluoromethyl)-9H-fluoren-4-yl)-1H-pyrazol-1-yl)propanehydrazide [Example 33],++ (50% or more of PHDE1α S293 expression inhibition rate at 1 µM)

# Same assay, conditions: Homo sapiens, 5 hours
row,Compound,inhibition at 1 µM [%]
1,"CC(C(=O)NNc1cccnc1)n1cc(-c2cc(F)cc3c2-c2ccccc2C3(O)C(F)(F)F)cn1 (stereo not shown) [Example 30, 2-(4-(2-fluoro-9-hydroxy-9-(trifluoromethyl)-9H-fluoren-4-yl)-1H-pyrazol-1-yl)-N'-(pyridin-3-yl)propanehydrazide]",≥ 50
2,"COc1cc(-c2cnn(C(C)C(=O)NNc3cccnc3)c2)c2c(c1)C(O)(C(F)(F)F)c1ccccc1-2 (stereo not shown) [Example 31, 2-(4-(9-hydroxy-2-methoxy-9-(trifluoromethyl)-9H-fluoren-4-yl)-1H-pyrazol-1-yl)-N'-(pyridin-3-yl)propanehydrazide]",≥ 50
3,"CC(C(=O)NNc1ccncc1)n1cc(-c2cc(F)cc3c2-c2ccccc2C3(O)C(F)(F)F)cn1 (stereo not shown) [Example 34, 2-(4-(2-fluoro-9-hydroxy-9-(trifluoromethyl)-9H-fluoren-4-yl)-1H-pyrazol-1-yl)-N'-(pyridin-4-yl)propanehydrazide]",≥ 50
4,"CC(C(=O)NNc1ncnc2ccccc12)n1cc(-c2cc(F)cc3c2-c2ccccc2C3(O)C(F)(F)F)cn1 (stereo not shown) [Example 35, 2-(4-(2-fluoro-9-hydroxy-9-(trifluoromethyl)-9H-fluoren-4-yl)-1H-pyrazol-1-yl)-N'-(quinazolin-4-yl)propanehydrazide]",≥ 50
5,"CC(C(=O)NNc1ccnc2ccccc12)n1cc(-c2cc(F)cc3c2-c2ccccc2C3(O)C(F)(F)F)cn1 (stereo not shown) [Example 36, 2-(4-(2-fluoro-9-hydroxy-9-(trifluoromethyl)-9H-fluoren-4-yl)-1H-pyrazol-1-yl)-N'-(quinolin-4-yl)propanehydrazide]",≥ 50
6,"CC(C(=O)NNc1cnc2ccccc2n1)n1cc(-c2cc(F)cc3c2-c2ccccc2C3(O)C(F)(F)F)cn1 (stereo not shown) [Example 37, 2-(4-(2-fluoro-9-hydroxy-9-(trifluoromethyl)-9H-fluoren-4-yl)-1H-pyrazol-1-yl)-N'-(quinoxalin-2-yl)propanehydrazide]",≥ 50
7,"CC(C(=O)NNc1cc2ccccc2[nH]c1=O)n1cc(-c2cc(F)cc3c2-c2ccccc2C3(O)C(F)(F)F)cn1 (stereo not shown) [Example 38, 2-(4-(2-fluoro-9-hydroxy-9-(trifluoromethyl)-9H-fluoren-4-yl)-1H-pyrazol-1-yl)-N'-(2-oxo-1,2-dihydroquinolin-3-yl)propanehydrazide]",≥ 50
8,"CC(C(=O)NNc1ccc2ccccc2n1)n1cc(-c2cc(F)cc3c2-c2ccccc2C3(O)C(F)(F)F)cn1 (stereo not shown) [Example 39, 2-(4-(2-fluoro-9-hydroxy-9-(trifluoromethyl)-9H-fluoren-4-yl)-1H-pyrazol-1-yl)-N'-(quinolin-2-yl)propanehydrazide]",≥ 50
9,"CC(C(=O)NNc1cc(=O)n(C)c2ccccc12)n1cc(-c2cc(F)cc3c2-c2ccccc2C3(O)C(F)(F)F)cn1 (stereo not shown) [Example 40, 2-(4-(2-fluoro-9-hydroxy-9-(trifluoromethyl)-9H-fluoren-4-yl)-1H-pyrazol-1-yl)-N'-(1-methyl-2-oxo-1,2-dihydroquinolin-4-yl)propanehydrazide]",≥ 50
10,"CC(C(=O)NNc1ccc2nccn2n1)n1cc(-c2cc(F)cc3c2-c2ccccc2C3(O)C(F)(F)F)cn1 (stereo not shown) [Example 41, 2-(4-(2-fluoro-9-hydroxy-9-(trifluoromethyl)-9H-fluoren-4-yl)-1H-pyrazol-1-yl)-N'-(imidazo[1,2-b]pyridazin-6-yl)propanehydrazide]",≥ 50
11,"CC(C(=O)NNc1nc2ccccc2s1)n1cc(-c2cc(F)cc3c2-c2ccccc2C3(O)C(F)(F)F)cn1 (stereo not shown) [Example 42, N'-(benzo[d]thiazol-2-yl)-2-(4-(2-fluoro-9-hydroxy-9-(trifluoromethyl)-9H-fluoren-4-yl)-1H-pyrazol-1-yl)propanehydrazide]",≥ 50
12,"CCC(C(=O)NNc1ccc(F)cc1)n1cc(-c2cc(F)cc3c2-c2ccccc2C3(O)C(F)(F)F)cn1 (stereo not shown) [Example 43, 2-(4-(2-fluoro-9-hydroxy-9-(trifluoromethyl)-9H-fluoren-4-yl)-1H-pyrazol-1-yl)-N'-(4-fluorophenyl)butanehydrazide]",≥ 50
13,"CC(C)C(C(=O)NNc1ccc(F)cc1)n1cc(-c2cc(F)cc3c2-c2ccccc2C3(O)C(F)(F)F)cn1 (stereo not shown) [Example 44, 2-(4-(2-fluoro-9-hydroxy-9-(trifluoromethyl)-9H-fluoren-4-yl)-1H-pyrazol-1-yl)-N'-(4-fluorophenyl)-3-methylbutanehydrazide]",≥ 50
14,"CC(C)CC(C(=O)NNc1ccc(F)cc1)n1cc(-c2cc(F)cc3c2-c2ccccc2C3(O)C(F)(F)F)cn1 (stereo not shown) [Example 45, 2-(4-(2-fluoro-9-hydroxy-9-(trifluoromethyl)-9H-fluoren-4-yl)-1H-pyrazol-1-yl)-N'-(4-fluorophenyl)-4-methylpentanehydrazide]",≥ 50
15,"O=C(NNc1ccc(F)cc1)C(CC1CCCCC1)n1cc(-c2cc(F)cc3c2-c2ccccc2C3(O)C(F)(F)F)cn1 (stereo not shown) [Example 46, 3-cyclohexyl-2-(4-(2-fluoro-9-hydroxy-9-(trifluoromethyl)-9H-fluoren-4-yl)-1H-pyrazol-1-yl)-N'-(4-fluorophenyl)propanehydrazide]",≥ 50
16,"CC(C)(C(=O)NNc1ccc(F)cc1)n1cc(-c2cc(F)cc3c2-c2ccccc2C3(O)C(F)(F)F)cn1 (stereo not shown) [Example 47, 2-(4-(2-fluoro-9-hydroxy-9-(trifluoromethyl)-9H-fluoren-4-yl)-1H-pyrazol-1-yl)-N'-(4-fluorophenyl)-2-methylpropanehydrazide]",≥ 50
17,"C[C@@H](C(=O)NNc1ccc(F)cc1)n1cc(-c2cc(F)cc3c2-c2ccccc2[C@@]3(O)C(F)(F)F)cn1 [Example 48, (S)-2-(4-((S)-2-fluoro-9-hydroxy-9-(trifluoromethyl)-9H-fluoren-4-yl)-1H-pyrazol-1-yl)-N'-(4-fluorophenyl)propanehydrazide]",≥ 50
18,"C[C@H](C(=O)NNc1ccc(F)cc1)n1cc(-c2cc(F)cc3c2-c2ccccc2[C@]3(O)C(F)(F)F)cn1 [Example 49, (R)-2-(4-((R)-2-fluoro-9-hydroxy-9-(trifluoromethyl)-9H-fluoren-4-yl)-1H-pyrazol-1-yl)-N'-(4-fluorophenyl)propanehydrazide]",≥ 50
19,"C[C@@H](C(=O)NNc1ccc(F)cc1)n1cc(-c2cc(F)cc3c2-c2ccccc2[C@]3(O)C(F)(F)F)cn1 [Example 50, (S)-2-(4-((R)-2-fluoro-9-hydroxy-9-(trifluoromethyl)-9H-fluoren-4-yl)-1H-pyrazol-1-yl)-N'-(4-fluorophenyl)propanehydrazide]",≥ 50
20,"C[C@H](C(=O)NNc1ccc(F)cc1)n1cc(-c2cc(F)cc3c2-c2ccccc2[C@@]3(O)C(F)(F)F)cn1 [Example 51, (R)-2-(4-((S)-2-fluoro-9-hydroxy-9-(trifluoromethyl)-9H-fluoren-4-yl)-1H-pyrazol-1-yl)-N'-(4-fluorophenyl)propanehydrazide]",≥ 50
21,"COc1cc(-c2cnn(C(C)C(=O)NN3CCCCC3)c2)c2c(c1)C(O)(C(F)(F)F)c1ccccc1-2 (stereo not shown) [Example 52, 2-(4-(9-hydroxy-2-methoxy-9-(trifluoromethyl)-9H-fluoren-4-yl)-1H-pyrazol-1-yl)-N-(piperidin-1-yl)propanamide]",≥ 50
22,"CC(C(=O)NN1CCCCC1)n1cc(-c2cc(F)cc3c2-c2ccccc2C3(O)C(F)(F)F)cn1 (stereo not shown) [Example 53, 2-(4-(2-fluoro-9-hydroxy-9-(trifluoromethyl)-9H-fluoren-4-yl)-1H-pyrazol-1-yl)-N-(piperidin-1-yl)propanamide]",≥ 50
23,"CC(C(=O)NN1CCCCCC1)n1cc(-c2cc(F)cc3c2-c2ccccc2C3(O)C(F)(F)F)cn1 (stereo not shown) [Example 54, N-(azepan-1-yl)-2-(4-(2-fluoro-9-hydroxy-9-(trifluoromethyl)-9H-fluoren-4-yl)-1H-pyrazol-1-yl)propanamide]",≥ 50
